The text below walks through data of patent publication US20040092515A1, “Diaminoquinazoline esters for use as dihydrofolate reductase inhibitors” (priority 2001, published 2004).

Molecules are shown by their SMILES.

One may read the melting point as the temperature, or range, at which the solid turns liquid.

Take `COc1cc(C(=O)OCc2ccc3nc(N)nc(N)c3c2)cc(OC)c1OC`: the melting point was 223 to 227 °C. Next, `COc1ccc(OC)c(C(=O)OCc2ccc3nc(N)nc(N)c3c2)c1`: 195 to 197 °C.
